Assay results published in patent US20240277698A1, “METHODS OF USING ALDOSTERONE SYNTHASE INHIBITORS” (CINCOR PHARMA, INC., priority 2021, published 2024).
Where two headings read alike, the source gives them in different places.

Assays:
[1] = SAD study Part 1: safety and tolerability (adverse events, laboratory values); format: in vivo; conditions: single oral dose, highest dose tested
Description: There were no deaths, serious adverse events (SAEs), or dose-limiting events and the maximum tolerated dose observed was at the highest dose tested (360 mg). Overall, the most frequently reported AEs following administration of a single dose of (R)-compound 1 were headache, nasopharyngitis, diarrhea, asthenia, dizziness, and nausea.
Urine sodium and the sodium to potassium ratio both increased, with the sodium loss in urine greater than the potassium retention. No change in urine creatinine was apparent.
AEs were reported for few subjects and the incidence was not dose dependent (Table 14). No severe AEs, SAEs, withdrawals due to AEs, or deaths were noted. Overall, the most frequently reported AEs across dose levels were headache, nasopharyngitis, diarrhea, and nausea; however, the only events reported by >1 subject at any dose level were toothache (2 subjects [12.5%] with placebo), nasopharyngitis (2 subjects [12.5%] with placebo), and headache (2 subjects [33.3%] with 180 mg). The majority of AEs were considered not related to study drug. Two events of moderate gastroenteritis were reported (with 180 mg and placebo) and all other AEs were mild in intensity.
Isolated markedly abnormal safety laboratory values were reported but no dose-dependent pattern was apparent. No AEs related to markedly abnormal safety laboratory values were reported. […]

[2] = Renal impairment study, single 10 mg dose: safety; format: in vivo
From the text: (§1) One subject with end stage disease experienced an unrelated SAE of metabolic encephalopathy and a moderate unrelated adverse event (AE) of tremor. One control subject experienced a mild AE of diarrhea, which was considered to be related to study drug by the Investigator. […] It is not necessary to dose adjust (R)-compound 1 for patients with renal impairment.
Overall, there were no deaths, 1 (3.0%) subject experienced an SAE, and no subjects discontinued due to a TEAE. Overall, 2 (6.1%) subjects experienced a total of 3 TEAEs: 1 (10.0%) subject in the control group experienced a TEAE of mild diarrhea following administration of (R)-compound 1 that was considered related to the study drug; no subjects experienced a TEAE in the (R)-moderate to severe renal impairment group; and 1 (8.3%) subject in the kidney failure group experienced 2 TEAEs of moderate tremor and severe metabolic encephalopathy (recorded as an SAE) following administration of (R)-compound 1 that were considered not related to the study drug. The SAE was thought to be secondary to the concomitant medications. As such, there was no apparent increase in incidence or severity of AEs with decreased renal function. There were no AEs, trends, or clinically meaningful changes in laboratory parameters. There were no AEs or clinically significant changes observed in vital signs, physical examinations, or 12-lead ECGs.

[3] = Renal impairment study, single 10 mg dose: pharmacokinetics; format: in vivo, human; conditions: for geometric mean ratio AUC(0-inf) versus control group / geometric mean ratio AUC(0-last) versus control group / geometric mean ratio Cmax versus control group: single 10 mg dose
Description: Of particular relevance to study subjects who will be enrolled in this trial is the investigation of the pharmacokinetics of (R)-compound 1 in individuals with varying degrees of renal impairment. The PK profiles of (R)-compound 1 and its primary metabolite following administration of a single 10 mg dose in individuals with renal impairment were qualitatively and quantitatively similar to those measured in healthy subjects. […] There were no noteworthy increases in systemic exposure or decrease in clearance in individuals with impaired renal function. Dose adjustment of (R)-compound 1 based on renal function was therefore not necessary.
as §1
There was no substantial impact of renal impairment on the PK of (R)-compound 1 based on pair-wise comparisons and no strong or nonlinear relationship between estimated GFR and PK parameters was observed. Findings for the primary metabolite of (R)-compound 1 was similar to those for parent with no clinically meaningful differences observed across groups. The percent of the dose excreted renally was approximately 12% in the control group and the moderate to severe renal impairment group. […] Based on the results of this study, dose adjustment of (R)-compound 1 in renally impaired individuals is not considered necessary.

[4] = Relative bioavailability of tablet versus oral solution, single 5 mg dose; format: in vivo, human; conditions: for AUC(0-inf) / AUC(0-t) / Cmax: 5 mg
Description: The relative bioavailability of the tablet formulation intended for use in future clinical studies as compared to the oral solution of (R)-compound 1 administered in the SAD and MAD was assessed following a single 5 mg dose of each formulation. Mean (+SD [standard deviation]) plasma concentration-time profiles following administration of the oral solution and tablet formulations are presented in FIG. 9.
Mean (SD) PK parameters of (R)-compound 1 following administration of the oral solution and tablet formulations are presented in Table 12.

[5] = moderate to severe renal impairment group

In the case of `CCC(=O)N[C@@H]1CCCc2c(-c3ccc4c(c3)CCC(=O)N4C)cncc21` [(R)-Compound 1, (R)—N-(4-(1-methyl-2-oxo-1,2,3,4-tetrahydroquinolin-6-yl)-5,6,7,8-tetrahydroisoquinolin-8-yl)propionamide], the maximum tolerated dose [1] is reported as 360 mg, the “subjects experiencing a TEAE (mild diarrhea, related)” value ([2]; control group) is reported as 1 (10.0%) and the “subjects experiencing TEAEs (moderate tremor, severe metabolic encephalopathy, not related)” value ([2]; kidney failure group) is reported as 1 (8.3%). For the same compound, the “subjects experiencing a TEAE” value [2, 5] was “no subjects”, the “subjects experiencing TEAEs” value ([2]; overall, single 10 mg dose) was 2 (6.1%) and the “subjects experiencing an SAE” value ([2]; overall, single 10 mg dose) was 1 (3.0%). For the same compound, the tolerability ([2]; single 10 mg dose, varying degrees of renal function) was “well tolerated”, the “percent of the dose excreted renally” value ([3]; control group) was “approximately 12%” and the renal excretion ([3]; kidney failure group) was “negligible renal excretion”. For the same compound, the “geometric mean ratio AUC(0-inf) versus control group” value ([3]; kidney failure group) was 0.68, the “geometric mean ratio AUC(0-last) versus control group” value ([3]; kidney failure group) was 0.68 and the “geometric mean ratio Cmax versus control group” value ([3]; kidney failure group) was 0.88. The “percent of the dose excreted renally” value [3, 5] was “approximately 12%”, the “geometric mean ratio AUC(0-inf) versus control group” value [3, 5] was 1.21 and the “geometric mean ratio AUC(0-last) versus control group” value [3, 5] was 1.17. For the same compound, the “geometric mean ratio Cmax versus control group” value [3, 5] was 1.02, the AUC(0-inf) ([4]; human, plasma, oral, tablet, read-out: AUC0-inf, GM (Geo. CV %)) was 1670 ng·h/mL and the AUC(0-inf) ([4]; human, plasma, oral, tablet, read-out: AUC0-inf, Geo. LS Mean) was 1720 ng·h/mL. The AUC(0-inf) ([4]; human, plasma, oral, tablet, read-out: AUC0-inf, Mean) was 1720 ng·h/mL, the AUC(0-t) ([4]; human, plasma, oral, tablet, read-out: AUC0-t, GM (Geo. CV %)) was 1580 ng·h/mL and the AUC(0-t) ([4]; human, plasma, oral, tablet, read-out: AUC0-t, Geo. LS Mean) was 1620 ng·h/mL. The AUC(0-t) ([4]; human, plasma, oral, tablet, read-out: AUC0-t, Mean) was 1620 ng·h/mL, the Cmax ([4]; human, plasma, oral, tablet, read-out: Cmax, GM (Geo. CV %)) was 52.3 ng/mL and the Cmax ([4]; human, plasma, oral, tablet, read-out: Cmax, Geo. LS Mean) was 52.8 ng/mL. It also gave a Cmax ([4]; human, plasma, oral, tablet, read-out: Cmax, Mean (SD)) of 53.1 ng/mL, a Tmax ([4]; human, plasma, oral, tablet, read-out: Tmax, Median (min, max)) of 3 h and an AUC(0-inf) ([4]; human, plasma, po, oral solution, read-out: AUC0-inf, GM (Geo. CV %)) of 1710 ng·h/mL. It also gave an AUC(0-inf) ([4]; human, plasma, po, oral solution, read-out: AUC0-inf, Geo. LS Mean) of 1680 ng·h/mL, an AUC(0-inf) ([4]; human, plasma, po, oral solution, read-out: AUC0-inf, Mean) of 1750 ng·h/mL and an AUC(0-t) ([4]; human, plasma, po, oral solution, read-out: AUC0-t, GM (Geo. CV %)) of 1610 ng·h/mL. It also gave an AUC(0-t) ([4]; human, plasma, po, oral solution, read-out: AUC0-t, Geo. LS Mean) of 1580 ng·h/mL, an AUC(0-t) ([4]; human, plasma, po, oral solution, read-out: AUC0-t, Mean) of 1650 ng·h/mL and a Cmax ([4]; human, plasma, po, oral solution, read-out: Cmax, GM (Geo. CV %)) of 52.7 ng/mL. For the same compound, the Cmax ([4]; human, plasma, po, oral solution, read-out: Cmax, Geo. LS Mean) was 52.1 ng/mL, the “AUCextrapolated, GM (Geo. CV %)” value ([4]; oral solution) was 5.018 (56.4) % and the “AUCextrapolated, Mean (SD)” value ([4]; oral solution) was 5.565 (2.2131) %. The “Cmax, Mean (SD)” value ([4]; oral solution) was 53.886 (11.6813) ng/mL, the “Tmax, Median (min, max)” value ([4]; oral solution) was 2.500 (1.00, 3.50) h and the “AUCextrapolated, GM (Geo. CV %)” value ([4]; tablet) was 4.995 (59.7) %. The “AUCextrapolated, Mean (SD)” value ([4]; tablet) was 5.600 (2.3669) %, the “AUC0-inf, Ratio of Geo. LS Means (tablet/solution)” value ([4]; tablet versus oral solution) was 102.2% and the “AUC0-t, Ratio of Geo. LS Means (tablet/solution)” value ([4]; tablet versus oral solution) was 102.2%. The “Cmax, Ratio of Geo. LS Means (tablet/solution)” value ([4]; tablet versus oral solution) was 101.2%.
